For test [1], the system named is serotonin release from the hypothalamus. The test can be described thus: Serotonin release from rat hypothalamus sections (HPLC). It counts as cell-based.
For test [2], the system named is glutamic acid release from the hippocampus. The test can be described thus: Glutamic acid release from rat hippocampus sections (HPLC). Format: cell-based.
Test [3] concerns dopamine release from the striatum. The test can be described thus: Dopamine release from rat striatum sections (HPLC). Format: cell-based.
Test [4] relates to senescence-accelerated mouse (SAMP8). The test can be described thus: Water maze test in senescence-accelerated mouse (SAMP8). Format: in vivo. The settings on record: 8 days. The protocol: Using senescence-accelerated mouse (accelerated-senescence-prone mice 8: SAMP8) and normal senescence mouse (accelerated-senescence-resistant mice 1: SAMR1) as a control thereof, a water maze test was performed. Male SAMP8 and SAMR1 (22- to 25-week-old) were available from Takeda Pharmaceutical Company Limited (Osaka, Japan). The mice were individually raised in a cage at 23±1° C., 12 hr light/dark cycle (lighted at 7:00 am), and allowed to freely ingest feed (solid feed) and water.
Racemate DCP-LA and 4 optical isomers DCP-LA (α,α-, α,β-, β,α-, β,β-DCP-LA), each dissolved in 0.1 ml polyethylene glycol (PEG), or 0.1 ml PEG were orally administered once a day from the day when the water maze test was started. For each group, the water maze test was performed twice a day for 8 days, and the time required to reach a platform (acquisition latency) was measured.
For the water maze test, a circular plastic water tank (diameter 90 cm, depth 36 cm) was used. The inside of the water tank was completely painted in black, and dark water with India ink was filled up to 20 cm from the bottom (22° C.). A platform (diameter 11 cm) painted in black was placed in water such that it was 1 cm below the water surface. The water tank was placed in a test room, and several marks seen by the mice from the water tank were put thereon. During the test, the position of the marks was not changed. A platform was placed a predetermined position from the equal distance from the center and the end of the water tank, namely, center of one quadrant. At one of the randomly selected 5 points, the mouse was released facing the wall of the water tank, and the time necessary for evacuating on the platform (acquisition latency) was measured. When smoothly evacuated, the mouse was left on the platform for 10 seconds. From the day of water maze test and during the test, polyethylene glycol (PEG) alone or racemate DCP-LA (1 mg/kg), α,α-DCP-LA (0.25 mg/kg), α,β-DCP-LA (0.25 mg/kg), β,α-DCP-LA (0.25 mg/kg), or β,β-DCP-LA (0.25 mg/kg), each dissolved in PEG, was orally administered every day. The water maze test was performed twice a day, and the second test was started at 2 min from the first test. The test was continuously performed for 8 days, and the average value (±SEM) of acquisition latency of continuous 2 days until the mouse reached the platform was calculated (each n=5).

Test [5] deals with senescence-accelerated mouse. The settings on record: non-patent document 2; cited from earlier work.
For test [6], the system named is amyloid β peptide- or scopolamine-treated rat. The settings on record: non-patent document 4; cited from earlier work.
The test system of another test is nerve cell. Conditions: patent document 2; cited from earlier work.
Test [7] addresses α7 nicotinic acetylcholine receptor (Homo sapiens, UniProt P36544). Conditions: α7 nicotinic acetylcholine receptor at the glutamatergic presynaptic terminal as target, non-patent document 5; cited from earlier work.
For the next test, the target named is T1, PKC-ε (Homo sapiens, UniProt Q02156).
T1 sequence (Q02156 1-737): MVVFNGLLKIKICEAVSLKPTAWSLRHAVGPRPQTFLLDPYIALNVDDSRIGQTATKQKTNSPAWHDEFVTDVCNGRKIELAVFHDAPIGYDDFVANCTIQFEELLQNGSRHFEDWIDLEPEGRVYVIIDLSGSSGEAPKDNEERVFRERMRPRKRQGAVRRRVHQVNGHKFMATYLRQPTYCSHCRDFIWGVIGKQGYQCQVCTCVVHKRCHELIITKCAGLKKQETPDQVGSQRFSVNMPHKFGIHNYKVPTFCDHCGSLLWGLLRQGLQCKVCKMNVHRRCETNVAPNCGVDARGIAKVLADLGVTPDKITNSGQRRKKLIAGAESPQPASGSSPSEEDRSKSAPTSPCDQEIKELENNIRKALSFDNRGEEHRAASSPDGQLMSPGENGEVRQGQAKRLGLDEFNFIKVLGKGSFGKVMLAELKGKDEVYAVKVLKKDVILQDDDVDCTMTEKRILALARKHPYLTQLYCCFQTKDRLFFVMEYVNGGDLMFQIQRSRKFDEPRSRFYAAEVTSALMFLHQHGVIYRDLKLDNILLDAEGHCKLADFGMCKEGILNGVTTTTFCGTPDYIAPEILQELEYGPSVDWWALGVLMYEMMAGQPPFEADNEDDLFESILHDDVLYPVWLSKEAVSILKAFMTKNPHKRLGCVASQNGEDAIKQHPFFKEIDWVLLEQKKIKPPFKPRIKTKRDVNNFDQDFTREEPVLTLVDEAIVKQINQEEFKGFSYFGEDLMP
Conditions: non-patent document 1; cited from earlier work.

The test system of a further test is hippocampus nerve cells. The settings on record: non-patent document 3; cited from earlier work.
Where [8] appears, read: SAMP8, 0.25 mg/kg orally once a day.

Structures are written as SMILES.

Chain of α7 nicotinic acetylcholine receptor (P36544 23-502): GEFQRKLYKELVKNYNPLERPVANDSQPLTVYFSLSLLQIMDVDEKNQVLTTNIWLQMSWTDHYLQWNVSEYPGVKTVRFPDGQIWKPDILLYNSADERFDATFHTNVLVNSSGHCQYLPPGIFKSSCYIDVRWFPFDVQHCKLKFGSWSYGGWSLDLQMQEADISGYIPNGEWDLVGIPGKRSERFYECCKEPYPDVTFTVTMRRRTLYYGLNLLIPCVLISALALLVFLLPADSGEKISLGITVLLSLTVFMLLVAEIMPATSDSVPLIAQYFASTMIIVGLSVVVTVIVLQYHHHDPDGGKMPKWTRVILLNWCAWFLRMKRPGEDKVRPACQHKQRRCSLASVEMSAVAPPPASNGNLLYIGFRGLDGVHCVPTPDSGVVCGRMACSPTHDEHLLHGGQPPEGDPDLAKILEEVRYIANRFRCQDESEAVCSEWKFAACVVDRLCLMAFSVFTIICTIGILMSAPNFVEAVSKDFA

As for `CN1CCCC1c1cccnc1` (centres unmarked) [nicotine, reference compound], the “serotonin release, substance alone vs non-treated group” value in [1] is recorded as “did not show a remarkable difference”. For the same compound, the “glutamic acid release, substance alone vs non-treated group” value in [2] is on record as “did not show a remarkable difference”. The “dopamine release, substance alone vs non-treated group” value in test [3] is on record as “did not show a remarkable difference”.

For `CCCCC[C@H]1C[C@H]1C[C@H]1C[C@@H]1CCCCCCCC(=O)O` [β,α-DCP-LA, 8-[(1S,2R)-2-{(1S,2S)-2-pentylcyclopropylmethyl}-cyclopropyl]octanoic acid], the “acquisition latency as compared to the PEG administration group” value in [4] (setting [8]) was “shortened acquisition latency”.

Take `CCCCC[C@@H]1C[C@@H]1C[C@H]1C[C@@H]1CCCCCCCC(=O)O` [α,α-DCP-LA, 8-[(1S,2R)-2-{(1R,2R)-2-pentylcyclopropylmethyl}-cyclopropyl]octanoic acid]: in test [4] (setting [8]), the “acquisition latency as compared to the PEG administration group” value is listed as “shortened acquisition latency” and the “acquisition latency as compared to the racemate DCP-LA (1 mg/kg) administration group” value was “significantly shortened acquisition latency”.

Regarding `CN(C)CCCn1cc(C2=C(c3c[nH]c4ccccc34)C(=O)NC2=O)c2ccccc21` [GF109203X, reference compound], the “effect of inhibitor on α,β-DCP-LA enhancement of nicotine-caused serotonin release” value in test [1] (inhibitor 100 nM, FIG. 15) is reported as “inhibited”. Besides, the “effect of inhibitor on α,β-DCP-LA enhancement of nicotine-caused glutamic acid release” value in test [2] (inhibitor 100 nM, FIG. 9) is on record as “inhibited”. The “effect of inhibitor on α,β-DCP-LA enhancement of nicotine-caused dopamine release” value in test [3] (inhibitor 100 nM, FIG. 12) is listed as “inhibited”.

`CCCCCC1CC1CC1CC1CCCCCCCC(=O)O` (racemic) [racemate DCP-LA, 8-(2-(2-pentyl-cyclopropylmethyl)-cyclopropyl)-octanoic acid]: the “cognitive dysfunction of senescence-accelerated mouse” value in test [5] is “improves cognitive dysfunction”. For the same compound, the “acquisition latency as compared to the PEG administration group” value in [4] (SAMP8, 1 mg/kg orally once a day) is “shortened acquisition latency”. The “cognitive dysfunction of amyloid β peptide- or scopolamine-treated rat” value in [6] is given as “improves cognitive dysfunction”. Moreover, in the test with nerve cell, the “nerve cell death induced by oxidative stress” value is reported as “suppress nerve cell death”. In addition, the hippocampus synaptic transmission result in test [7] is “promotes hippocampus synaptic transmission”. The PKC-ε activation entry at PKC-ε was “selectively and directly activates PKC-ε”. Moreover, in the test with hippocampus nerve cells, the “release of γ aminobutyric acid from hippocampus nerve cells” value is listed as “increases release of γ aminobutyric acid”.

Consider `CCCCC[C@H]1C[C@H]1C[C@@H]1C[C@H]1CCCCCCCC(=O)O` [β,β-DCP-LA, 8-[(1R,2S)-2-{(1S,2S)-2-pentylcyclopropylmethyl}-cyclopropyl]octanoic acid], for which the “acquisition latency as compared to the PEG administration group” value in [4] (setting [8]) was “shortened acquisition latency”.

The values above are taken from US9012500B2, “PKC-ε activator” (Nishizaki Bioinformation Research Institute, priority 2010, dated 2015).
